Patent publication US4904590A, “Antibiotic A80915 and process for its production” (Eli Lilly and Company, priority 1988, dated 1990)
Converted amounts (≈) assume the structure as drawn. Where two headings read alike, the source gives them in different places.

How the values were obtained:
[1] = test system: Eubacterium aerofaciens 1235; experiment: Susceptibility of anaerobic bacterial isolates (MIC), agar-dilution; type: cell-based
[2] = test system: Bacteriodes vulgatis 1211; experiment: as above; type: cell-based
[3] = test system: Clostridium septicum 1128; experiment: as above; type: cell-based; conditions: 24-hour incubation
Protocol: The A80915 antibiotics also are active against anaerobic bacteria. […] End points were read after 24-hour incubation.

[4] = test system: Bacteriodes fragilis 1877; experiment: as above; type: cell-based
[5] = test system: Bacteriodes corrodens 1874; experiment: as above; type: cell-based
Mycoplasma gallisepticum = type: cell-based; conditions: Mycoplasmoides gallisepticum; Veterinary organism Mycoplasma gallisepticum; agar-dilution
Protocol: (§1) The A80915 antibiotics inhibit the growth of bacteria which are pathogenic to animal life. […] The MIC's in Table III were determined by conventional agar-dilution assays.

Pasteurella hemolytica = type: cell-based; conditions: Veterinary organism Pasteurella hemolytica; agar-dilution
Protocol: as §1

[6] = test system: Streptococcus pneumoniae Park1; type: cell-based
Protocol: as §1

Gram-negative = type: cell-based; conditions: agar-dilution
Protocol: as §1

[7] = test system: Staphylococcus aureus X1.1; type: cell-based
Protocol: as §1

[8] = test system: Staphylococcus aureus V41; type: cell-based
Protocol: as §1

[9] = test system: Staphylococcus epidermis 222; type: cell-based
Protocol: as §1

[10] = test system: Streptococcus faecium X66; type: cell-based; conditions: Enterococcus faecium
Protocol: as §1

Escherichia coli = type: cell-based; conditions: Veterinary organism Escherichia coli; agar-dilution
Protocol: as §1

Streptococcus sp. = type: cell-based; conditions: Veterinary organism Streptococcus sp.; agar-dilution
Protocol: as §1

Salmonella typhimurium = type: cell-based; conditions: Salmonella enterica; Veterinary organism Salmonella typhimurium; agar-dilution
Protocol: as §1

Staphylococcus sp. = type: cell-based; conditions: Veterinary organism Staphylococcus sp.; agar-dilution
Protocol: as §1

[11] = test system: Bordetella bronchiseptica; type: cell-based; conditions: Veterinary organism Bordetella bronchiseptica; agar-dilution
Protocol: as §1

[12] = test system: Staphylococcus aureus X400; type: cell-based
Protocol: as §1

[13] = test system: Streptococcus faecium 2041; type: cell-based; conditions: Enterococcus faecium
Protocol: as §1

[14] = test system: Streptococcus pyogenes C203; type: cell-based
Protocol: as §1

[15] = test system: Staphylococcus epidermis EPI1; type: cell-based
Protocol: as §1

Pasteurella multocida = type: cell-based; conditions: Veterinary organism Pasteurella multocida; agar-dilution
Protocol: as §1

Mycoplasma hyopneumoniae = type: cell-based; conditions: Mesomycoplasma hyopneumoniae; Veterinary organism Mycoplasma hyopneumoniae; agar-dilution
Protocol: as §1

[16] = test system: Peptococcus asaccharolyticus 1302; experiment: Susceptibility of anaerobic bacterial isolates (MIC), agar-dilution; type: cell-based; conditions: Peptoniphilus asaccharolyticus; Peptococcus asaccharolyticus 1302; agar-dilution, 24-hour incubation; read-out: MIC
Bacteriodes fragilis 111 = experiment: as above; type: cell-based
[17] = test system: Clostridium difficile 2994; experiment: as above; type: cell-based
[18] = test system: Bacteriodes fragilis 1936B; experiment: as above; type: cell-based
[19] = test system: Peptostreptococcus intermedius 1264; experiment: as above; type: cell-based; conditions: Peptostreptococcus, 1264, 24 h
[20] = test system: Bacteriodes melaninogenicus 2736; experiment: as above; type: cell-based
[21] = test system: Propionibacterium acnes 79; experiment: as above; type: cell-based
Trichomonas foetus = experiment: Anti-protozoan activity (MIC); type: cell-based; conditions: Tritrichomonas foetus
Trichomonas vaginalis = experiment: Anti-protozoan activity (MIC); type: cell-based
[22] = test system: Fusobacterium symbiosum 1470; experiment: Susceptibility of anaerobic bacterial isolates (MIC), agar-dilution; type: cell-based
[23] = test system: Bacteriodes thetaiotaomicron 1438; experiment: as above; type: cell-based
Candida albicans = experiment: Anti-fungal activity (MIC); type: cell-based
[24] = test system: Fusobacterium necrophorum 6054A; experiment: Susceptibility of anaerobic bacterial isolates (MIC), agar-dilution; type: cell-based
[25] = test system: Clostridium perfringens 81; experiment: microbe, parasite or virus in culture; type: cell-based; conditions: Clostridium perfringens, 81, 24 h
[26] = Acute toxicity in mice, intraperitoneal injection; conditions: mouse, in vivo, ip
Source text: The acute toxicity of the A80915 antibiotics in mice, when administered by intraperitoneal injection and expressed as LD50, is shown in Table V.

Peptococcus prevoti 1281 = experiment: Susceptibility of anaerobic bacterial isolates (MIC), agar-dilution; type: cell-based; conditions: 24 h
[27] = test system: Bacteriodes melaninogenicus 1856/28; experiment: as above; type: cell-based; conditions: Bacteriodes melaninogenicus 1856/28; agar-dilution, 24-hour incubation; read-out: MIC
[28] = test system: Peptostreptococcus anaerobius 1428; experiment: as above; type: cell-based
[29] = Streptococcus pneumoniae Park1, agar-dilution, read-out: MIC
[30] = Staphylococcus aureus X1.1, agar-dilution, read-out: MIC
[31] = Staphylococcus aureus V41, agar-dilution, read-out: MIC
[32] = Staphylococcus epidermis 222, agar-dilution, read-out: MIC
[33] = Streptococcus faecium X66, agar-dilution, read-out: MIC
[34] = Staphylococcus aureus X400, agar-dilution, read-out: MIC
[35] = Streptococcus faecium 2041, agar-dilution, read-out: MIC
[36] = Streptococcus pyogenes C203, agar-dilution, read-out: MIC
[37] = Staphylococcus epidermis EPI1, agar-dilution, read-out: MIC

Structure (SMILES): C=C1CCC(Cl)C(C)(C)C1CC12OC(C)(C)C(Cl)CC1(Cl)C(=O)c1c(cc(O)c(C)c1O)C2=O (stereo not shown) [A80915A]
- MIC ([1]; Collinsella aerofaciens, 1235, 24 h): 4 µg/mL (≈ 7.55 µM)
- MIC ([2]; Bacteriodes vulgatis 1211, agar-dilution, 24-hour incubation, read-out: MIC): > 128 µg/mL
- MIC [3]: 4 µg/mL (≈ 7.55 µM)
- MIC ([4]; Bacteriodes fragilis 1877, agar-dilution, 24-hour incubation, read-out: MIC): > 128 µg/mL
- MIC ([5]; Bacteriodes corrodens 1874, agar-dilution, 24-hour incubation, read-out: MIC): > 128 µg/mL
- MIC (Mycoplasma gallisepticum): 0.78 µg/mL (≈ 1.47 µM)
- MIC (Pasteurella hemolytica): > 50 µg/mL
- MIC [6, 29]: 32 µg/mL (≈ 60.4 µM)
- MIC (Gram-negative): > 128 µg/mL
- MIC [7, 30]: 2 µg/mL (≈ 3.77 µM)
- MIC [8, 31]: 2 µg/mL (≈ 3.77 µM)
- MIC [9, 32]: 2 µg/mL (≈ 3.77 µM)
- MIC [10, 33]: 2 µg/mL (≈ 3.77 µM)
- MIC (Escherichia coli): > 50 µg/mL
- MIC (Streptococcus sp.): 0.2 µg/mL (≈ 0.377 µM)
- MIC (Salmonella typhimurium): > 50 µg/mL
- MIC (Staphylococcus sp.): 0.1 µg/mL (≈ 0.189 µM)
- MIC [11]: > 50 µg/mL
- MIC [12, 34]: 2 µg/mL (≈ 3.77 µM)
- MIC [13, 35]: 8 µg/mL (≈ 15.1 µM)
- MIC [14, 36]: 32 µg/mL (≈ 60.4 µM)
- MIC [15, 37]: 2 µg/mL (≈ 3.77 µM)
- MIC (Pasteurella multocida): 3.12 µg/mL (≈ 5.89 µM)
- MIC (Mycoplasma hyopneumoniae): 3.12 µg/mL (≈ 5.89 µM)
- MIC [16]: 16 µg/mL (≈ 30.2 µM)
- MIC (Bacteriodes fragilis 111; Bacteriodes fragilis 111, agar-dilution, 24-hour incubation, read-out: MIC): > 128 µg/mL
- MIC ([17]; Clostridioides difficile, 2994, 24 h): 4 µg/mL (≈ 7.55 µM)
- MIC ([18]; Bacteriodes fragilis 1936B, agar-dilution, 24-hour incubation, read-out: MIC): > 128 µg/mL
- MIC [19]: 4 µg/mL (≈ 7.55 µM)
- MIC ([20]; Bacteriodes melaninogenicus 2736, agar-dilution, 24-hour incubation, read-out: MIC): > 128 µg/mL
- MIC ([21]; Cutibacterium acnes, Propionibacterium acnes 79, agar-dilution, 24-hour incubation, read-out: MIC): 32 µg/mL (≈ 60.4 µM)
- MIC (Trichomonas foetus): 50 µg/mL (≈ 94.4 µM)
- MIC (Trichomonas vaginalis): 12.5 µg/mL (≈ 23.6 µM)
- MIC ([22]; Fusobacterium symbiosum 1470, agar-dilution, 24-hour incubation, read-out: MIC): > 128 µg/mL
- MIC ([23]; Bacteriodes thetaiotaomicron 1438, agar-dilution, 24-hour incubation, read-out: MIC): > 128 µg/mL
- MIC (Candida albicans): > 40 µg/mL
- MIC ([24]; Fusobacterium necrophorum 6054A, agar-dilution, 24-hour incubation, read-out: MIC): > 128 µg/mL
- MIC [25]: 4 µg/mL (≈ 7.55 µM)
- LD50 [26]: 212 mg/kg
- MIC (Peptococcus prevoti 1281): 4 µg/mL (≈ 7.55 µM)
- MIC [27]: 2 µg/mL (≈ 3.77 µM)
- MIC ([28]; Peptostreptococcus anaerobius 1428, agar-dilution, 24-hour incubation, read-out: MIC): > 128 µg/mL

Structure (SMILES): Cc1c(O)cc2c(c1O)C(=O)[C@@]1(Cl)C[C@@H](Cl)C(C)(C)O[C@@]1(C[C@H]1C(C)(C)[C@@H](Cl)CC[C@]1(C)O)C2=O [A80915C]
- MIC ([1]; Collinsella aerofaciens, Eubacterium aerofaciens 1235, agar-dilution, 24-hour incubation, read-out: MIC): 8 µg/mL (≈ 14.6 µM)
- MIC ([2]; 24 h): > 128 µg/mL
- MIC [3]: 8 µg/mL (≈ 14.6 µM)
- MIC ([4]; 24 h): 4 µg/mL (≈ 7.3 µM)
- MIC ([5]; 24 h): > 128 µg/mL
- MIC (Mycoplasma gallisepticum): 25 µg/mL (≈ 45.6 µM)
- MIC (Pasteurella hemolytica): 50 µg/mL (≈ 91.3 µM)
- MIC ([6]; Streptococcus pneumoniae, PARK1): > 128 µg/mL
- MIC (Gram-negative): > 128 µg/mL
- MIC ([7]; Staphylococcus aureus, X1.1): > 128 µg/mL
- MIC ([8]; Staphylococcus aureus, V41): > 128 µg/mL
- MIC ([9]; Staphylococcus, 222): > 128 µg/mL
- MIC ([10]; X66): > 128 µg/mL
- MIC (Escherichia coli): > 50 µg/mL
- MIC (Streptococcus sp.): 3.12 µg/mL (≈ 5.69 µM)
- MIC (Salmonella typhimurium): > 50 µg/mL
- MIC (Staphylococcus sp.): 1.56 µg/mL (≈ 2.85 µM)
- MIC [11]: > 50 µg/mL
- MIC ([12]; Staphylococcus aureus, X400): > 128 µg/mL
- MIC [13]; 2041: > 128 µg/mL
- MIC ([14]; Streptococcus pyogenes, C203): > 128 µg/mL
- MIC ([15]; Staphylococcus, EPI1): > 128 µg/mL
- MIC (Pasteurella multocida): 50 µg/mL (≈ 91.3 µM)
- MIC (Mycoplasma hyopneumoniae): > 50 µg/mL
- MIC [16]: 2 µg/mL (≈ 3.65 µM)
- MIC (Bacteriodes fragilis 111; 24 h): 128 µg/mL (≈ 234 µM)
- MIC ([17]; Clostridioides difficile, Clostridium difficile 2994, agar-dilution, 24-hour incubation, read-out: MIC): 8 µg/mL (≈ 14.6 µM)
- MIC ([18]; 24 h): 4 µg/mL (≈ 7.3 µM)
- MIC [19]: 128 µg/mL (≈ 234 µM)
- MIC ([20]; 24 h): > 128 µg/mL
- MIC ([21]; Cutibacterium acnes, 79, 24 h): 4 µg/mL (≈ 7.3 µM)
- MIC (Trichomonas foetus): > 100 µg/mL
- MIC (Trichomonas vaginalis): > 100 µg/mL
- MIC ([22]; Fusobacterium, 1470, 24 h): > 128 µg/mL
- MIC ([23]; 24 h): > 128 µg/mL
- MIC (Candida albicans): > 80 µg/mL
- MIC ([24]; Fusobacterium necrophorum, 6054A, 24 h): > 128 µg/mL
- MIC [25]: 8 µg/mL (≈ 14.6 µM)
- LD50 [26]: > 300 mg/kg
- MIC (Peptococcus prevoti 1281): 2 µg/mL (≈ 3.65 µM)
- MIC [27]: 64 µg/mL (≈ 117 µM)
- MIC ([28]; Peptostreptococcus anaerobius, 1428, 24 h): 4 µg/mL (≈ 7.3 µM)

Structure (SMILES): C=C1CCC(Cl)C(C)(C)C1CC12OC(C)(C)C(Cl)C=C1C(=O)c1c(cc(O)c(C)c1O)C2=O (stereo not shown) [Compound 5]
- MIC [6, 29]: 4 µg/mL (≈ 8.11 µM)
- MIC (Gram-negative): > 128 µg/mL
- MIC [7, 30]: 4 µg/mL (≈ 8.11 µM)
- MIC [8, 31]: 4 µg/mL (≈ 8.11 µM)
- MIC [9, 32]: 4 µg/mL (≈ 8.11 µM)
- MIC [10, 33]: 8 µg/mL (≈ 16.2 µM)
- MIC [12, 34]: 4 µg/mL (≈ 8.11 µM)
- MIC [13, 35]: 8 µg/mL (≈ 16.2 µM)
- MIC [14, 36]: 4 µg/mL (≈ 8.11 µM)
- MIC [15, 37]: 4 µg/mL (≈ 8.11 µM)
